Test results as given in patent US11331318B2, “Arterial oxygen saturation degree improver” (FURUKAWA RESEARCH OFFICE CO., LTD., priority 2017, dated 2022).

Assays:
ddY male mice [1] = experiment: Oxygen consumption during forced treadmill exercise in mice (reference example 2); type: in vivo, mouse; conditions: 5 times a week for 3 weeks
Method: In order to verify whether orotic acid has an effect of decreasing the oxygen consumption during exercise or not, the following test was performed. Twenty-four ddY male mice (6-week old) bred in a thermostatic animal chamber of 24±2° C. for one week or more under a light-dark cycle of 12 hours (lighting from 8:00 to 20:00) were prepared. These mice were divided into two groups. Each mouse in one group, CTL group, was administered with 0.5 mass % CMC solution in an amount of 10 mL per 1 kg of mouse body weight. Each mouse in the other group, OA group, was administered with 50 mg/mL of orotic acid suspended in 0.5 mass % CMC solution in an amount of 10 mL per 1 kg of mouse body weight. These administrations were performed 5 times a week for successive 3 weeks (15 times in total) for each mouse. Fasting of each mouse was started at 17:00 on the day of last administration. The mice were subjected to forced exercise using a mouse treadmill from 10:00 on the following day, and the oxygen consumption and the carbon dioxide production volume during exercise were measured. Incidentally, the forced exercise was performed for 30 minutes in total at a speed of 15 m/min for first 5 minutes, at a speed of 20 m/min for the following 5 minutes, and then at a speed of 25 m/min for 20 minutes. […] In addition, the respiratory quotient of each mouse was calculated as a value obtained by dividing the carbon dioxide production volume by the oxygen consumption.

[2] = test system: person suspected of having sleep apnea syndrome (SAS); experiment: SpO2 at apnea or hypopnea state in a person suspected of having sleep apnea syndrome; type: in vivo, human; conditions: one tablet of orotic acid-containing throat candy at bedtime, oral absorption
From the text: A person suspected of having sleep apnea syndrome (SAS) ingested one tablet of the placebo throat candy manufactured in Example 3 at bedtime, and the maximum time of sleep apnea (a state in which breathing stops for 10 seconds of more) or hypopnea (a state in which ventilation by breathing falls to 50% or less for 10 seconds or more), which are detected with testing equipment for sleep apnea syndrome lent from a medical corporation Koshikai Ginza Yasue Clinic, and the SpO2 level at that time was measured two nights by the method in Example 1 (these levels are written by numerical numbers in the diagnostic results analyzed by the clinic software). The women then ingested one tablet of the orotic acid-containing throat candy manufactured in Example 3 at bedtime, and the maximum time of sleep apnea or hypopnea state and the SpO2 level at that time was measured by the same method as above two nights. In FIG. 6, the results in ingestion of one tablet of placebo throat candy are shown by round-shaped plots, and the results in ingestion of one tablet of orotic acid-containing throat candy are shown by diamond-shaped plots.

[3] = test system: human subjects in normobaric hypoxic room (oxygen concentration 12.4 to 12.7%); experiment: SpO2 and heart rate in a normobaric hypoxic room before and after administration of orotic acid; type: in vivo
Method: A person (subject A) entered a normobaric hypoxic room (oxygen concentration: 12.4 to 12.7%, equivalent to that at an altitude of about 4000 m, 23° C.) of Miura Dolphins and was then administered with 400 mg of orotic acid by repeating twice a method (sublingual administration) in which a mixture (400 mg) of free form orotic acid (manufactured by Kyowa Hakko Bio Co., Ltd., 200 mg) and L-carnitine (manufactured by Lonza Japan Ltd., 200 mg) wrapped in wafer paper was placed under the tongue and allowed to stay in the mouth for at least 30 seconds, and the SpO2 and heart rate were measured using a pulse oximeter PULSOX-300i (manufactured by Konica Minolta, Inc.). Incidentally, in this example, carnitine was used for enhancing the solubility of orotic acid in water (absorbability into oral mucosa (see Japanese unexamined Patent Application Publication No. 2015-43743). Subject A was required not to consciously change their breathing after entering the room. Three subjects ([subject A: the same subject as that Example 1], [subject B], and [subject C]) were subjected to a test according to the method described in [Test method 1] above. Subject A was subjected to examination of swallowing (oral administration) two tablets each containing 200 mg of free form orotic acid monohydrate (manufactured by Kyowa Hakko Bio Co., Ltd.) (400 mg of orotic acid in total) for comparison with sublingual administration. In this test, the oxygen concentration in the room was stable within a range of 12.4% to 12.7% throughout the test period.

[4] = test system: healthy women performing bike exercise; experiment: Change in plasma uric acid level after bike exercise (uricase-POD method); type: in vivo, human; conditions: non-ingestion group increase of 0.2 mg/dL
Method: Six 22-year-old healthy women were divided into three groups of two. All the women were fasted for 24 hours (allowed only to drink water or tea), and two women of one group ingested one tablet of the orotic acid-containing throat candy (OA mouth-dissolving tablet), two women of another group ingested one tablet of the free form orotic acid monohydrate-containing tablets manufactured in Example 2 (OA tablet), and two women of the remaining group ingested one tablet of the placebo throat candy (non-ingestion), and the women performed bike exercise (exercise intensity: […]) for 30 minutes. Changes in energy consumption and changes in plasma uric acid level were measured at 2 hours, 3 hours, and 4 hours after completion of the exercise by the following measuring method. The uric acid concentrations (mg/dL) at immediately after completion of exercise and at 4 hours after completion of exercise were determined by allowing peroxidase (POD) to act on hydrogen peroxide (H2O2), generated by oxidative decomposition of uric acid in a sample by the action of uricase, in the presence of 4-aminoantipyrine (4-AA) and a color former for oxidative condensation to generate a quinone dye (uricase-POD method). The resulting quinone dye is colorimetrically measured to calculate the change in plasma uric acid level.

ddY male mice [5] = experiment: Oxygen consumption during non-exercise in mice (reference example 1); type: in vivo, mouse; conditions: 5 times a week for 4 weeks
Method: In order to verify whether orotic acid has an effect of decreasing the oxygen consumption during non-exercise or not, the following test was performed. Thirty-two ddY male mice (6-week old) bred in a thermostatic animal chamber of 24±2° C. for one week or more under a light-dark cycle of 12 hours (lighting from 8:00 to 20:00) were prepared. These mice were divided into two groups. Each mouse in one group (control group: CTL group) was administered with 0.5 mass % carboxymethyl cellulose solution (CMC solution) in an amount of 10 mL per 1 kg of mouse body weight. Each mouse in the other group (orotic acid administration group: OA group) was administered with orotic acid (50 mg/mL) suspended in 0.5 mass % CMC solution in an amount of 10 mL per 1 kg of mouse body weight. These administrations were performed 5 times a week for successive 4 weeks (20 times in total) for each mouse. Each mouse was transferred to a metabolism measurement chamber at 19:00 on the day of last administration to start fasting, and the oxygen consumption (VO2 [mL/min]) and carbon dioxide production volume (VCO2 [mL/min]) during the dark period from 20:00 to 8:00 on the following day were measured. […] In addition, the respiratory quotient (RER) of each mouse was calculated as a value obtained by dividing the carbon dioxide production volume by the oxygen consumption.

[6] = test system: healthy women performing bike exercise; experiment: Change in energy consumption after bike exercise; type: in vivo, human; conditions: one tablet (200 mg) before exercise
Method: Six 22-year-old healthy women were divided into three groups of two. All the women were fasted for 24 hours (allowed only to drink water or tea), and two women of one group ingested one tablet of the orotic acid-containing throat candy (OA mouth-dissolving tablet), two women of another group ingested one tablet of the free form orotic acid monohydrate-containing tablets manufactured in Example 2 (OA tablet), and two women of the remaining group ingested one tablet of the placebo throat candy (non-ingestion), and the women performed bike exercise (exercise intensity: […]) for 30 minutes. Changes in energy consumption and changes in plasma uric acid level were measured at 2 hours, 3 hours, and 4 hours after completion of the exercise by the following measuring method. Exhalation was analyzed at immediately after completion of exercise and at 2 hours, 3 hours, and 4 hours after completion of exercise with AERO MONITOR AE 300S manufactured by Minato Medical Science Co., Ltd. Oxygen uptake volume and carbon dioxide production volume were measured, and the energy consumption (kcal/day) was determined by the following expression (1) to calculate the change in energy consumption. Energy consumption (kcal/day)=(3.9×oxygen uptake volume)+(1.1×carbon dioxide production volume) (1) Method for Measuring Change in Plasma Uric Acid Level

male ddY mice = experiment: Limit swimming time in mice (reference example 3); type: in vivo, mouse
Method: The endurance-enhancing effect was verified using orotic acid as a test substance. Seven-week old male ddY mice were purchased from Japan SLC, Inc. and were each acclimatized for 7 days and then forced to swim with a weight on the tail. When a mouse could not come up to the water surface and stayed under the surface of the water for 5 seconds, the time thereof was measured as the limit swimming time. The mice were divided into groups, such that there was no difference in limit swimming time between the groups, as follows: control group (CTL group, n=10), orotic acid 250 mg/kg administration group (OA 250 mg/kg group, n=10), and orotic acid 500 mg/kg administration group (OA 500 mg/kg group, n=10). The mice in each group were bred using roughage (CE-2), and the mice in OA 250 mg/kg group and OA 500 mg/kg group were orally administered with 250 mg/kg of orotic acid and 500 mg/kg of orotic acid, respectively, five times a week. After the grouping, the limit swimming time in each group was measured once a week while being bred for 3 weeks.

## O=C(O)c1cc(=O)[nH]c(=O)[nH]1 [orotic acid]
ddY male mice [1]
  carbon dioxide production volume (VCO2) compared to control group: significantly decreased
  respiratory quotient (RER) compared to control group: not a significant difference
ddY male mice [1]; orotic acid 50 mg/mL suspension 10 mL/kg
  oxygen consumption (VO2) compared to control group: significantly decreased
[2]
  SpO2 level at the same apnea time, compared with no orotic acid (placebo throat candy): higher than that when orotic acid was not ingested
[3]; subject A, 400 mg oral
  heart rate: did not have a considerable irregularity in heart rate
  sense of discomfort felt to be caused by hypoxia: merely slightly improved
[3]; subject A, 400 mg oral (two swallowed tablets of free form orotic acid monohydrate), SpO2 decreased to 84%
  recovery of SpO2 level after oral administration: hardly recovered
[3]; subject A, 400 mg orotic acid sublingual (mixed with L-carnitine, in wafer paper), SpO2 83% to 84% before administration
  SpO2 level about 30 minutes after sublingual administration: 88%
[3]; subject A, 400 mg sublingual
  SpO2 level stably maintained until leaving the room: about 88%
  heart rate: no considerable irregularity in heart rate
  sense of discomfort felt to be caused by hypoxia: disappeared soon after ingestion of orotic acid
[3]; subject A, 400 mg sublingual, until leaving the room
  time for which the increased SpO2 level was stably maintained: at least 5 hours
[3]; subject B, 400 mg sublingual
  heart rate before and after administration: hardly changed
  symptoms such as light sleepiness and reduced concentration: cancelled
[3]; subject B, 400 mg sublingual, SpO2 82% before, increased at about 30 minutes after administration
  SpO2 level recovered after sublingual administration: 86%
[3]; subject C, 200 mg sublingual
  symptoms of altitude sickness, such as headache and bad feeling: disappeared
[3]; subject C, 200 mg sublingual at 2 hours and 40 minutes after entering the room
  SpO2 level recovered after sublingual administration: higher than 80%
[3]; subject C, 400 mg swallowed before dissolution of wafer paper (same as oral administration), SpO2 decreased to 70%
  recovery of SpO2 level: no recovery in the SpO2 level was observed
[4]; orotic acid ingested by oral absorption as throat candy
  change of uric acid concentration between immediately after exercise and 4 hours after exercise (decrease): 0.05 mg/dL
[4]; orotic acid ingested by oral administration
  change of uric acid concentration between immediately after exercise and 4 hours after exercise (increase): 0.1 mg/dL
ddY male mice [5]
  respiratory quotient (RER) compared to control group: not a significant difference
ddY male mice [5]; dark period
  carbon dioxide production volume (VCO2) compared to control group: significantly decreased
ddY male mice [5]; dark period, orotic acid 50 mg/mL suspension 10 mL/kg
  oxygen consumption (VO2) compared to control group: significantly decreased
[6]; oral absorption as throat candy
  decrease in energy consumption at 2, 3 and 4 hours after bike exercise compared to immediately after exercise: remarkable compared to that when orotic acid was ingested by oral administration
[6]; oral administration
  energy consumption at 2, 3 and 4 hours after bike exercise compared to immediately after exercise: decreased
Male ddY mice; experiments using mice, oral administration, at least three weeks needed for a significant difference
  effect of oral administration on the day of administration or within one week: not observed
Male ddY mice; oral 250 mg/kg and 500 mg/kg, five times a week, 3 weeks
  limit swimming time: prolonged depending on the dose of orotic acid
